Test results as given in ChEMBL document CHEMBL1201862, “PubChem BioAssay data set” (2004).
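Assay format: 96-well plates, 48-hour exposure. Here, GI50 denotes the concentration required for 50% inhibition of growth.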 Calls of active or inactive are those of the source. Rule as the data show it: active = GI50 up to about 1.1 µM and inactive = higher.

What was measured:
Test in all cases: growth of human tumour cells (NCI), 48 h
OVCAR-3 = test system: OVCAR-3
UACC-62 = test system: UACC-62
NCI-H460 = test system: NCI-H460
DU-145 = test system: DU-145
A498 = test system: A498
SR = test system: SR
NCI-H522 = test system: NCI-H522
HCT-116 = test system: HCT-116
MDA-N = test system: MDA-N
OVCAR-8 = test system: OVCAR-8
KM12 = test system: KM12
M14 = test system: M14
EKVX = test system: EKVX
SNB-19 = test system: SNB-19
Hs-578T = test system: Hs-578T
HCC 2998 = test system: HCC 2998
NCI/ADR-RES = test system: NCI/ADR-RES
HOP-62 = test system: HOP-62
HT-29 = test system: HT-29

| SMILES | GI50 (OVCAR-3) | GI50 (UACC-62) | GI50 (NCI-H460) | GI50 (DU-145) | GI50 (A498) | GI50 (SR) | GI50 (NCI-H522) | GI50 (HCT-116) | GI50 (MDA-N) | GI50 (OVCAR-8) | GI50 (KM12) | GI50 (M14) | GI50 (EKVX) | GI50 (SNB-19) | GI50 (Hs-578T) | GI50 (HCC 2998) | GI50 (NCI/ADR-RES) | GI50 (HOP-62) | GI50 (HT-29) |
| --- | --- | --- | --- | --- | --- | --- | --- | --- | --- | --- | --- | --- | --- | --- | --- | --- | --- | --- | --- |
| C[C@H](CCC(=O)NN)[C@H]1CC[C@H]2[C@@H]3CC[C@@H]4C[C@H](O)CC[C@]4(C)[C@H]3CC[C@]12C | 32 µM (inactive) | > 100 µM (inactive) | 52.1 µM (inactive) | > 50.8 µM (inactive) | 79.3 µM (inactive) | 18.6 µM (inactive) | 29.2 µM (inactive) | 41 µM (inactive) | 75.7 µM (inactive) | 37.2 µM (inactive) | 39.2 µM (inactive) | 25.4 µM (inactive) | 43 µM (inactive) | 97.3 µM (inactive) | > 100 µM (inactive) | 41.4 µM (inactive) | 64.1 µM (inactive) | > 100 µM (inactive) | 27.7 µM (inactive) |
| Clc1ccc(CCN[C@H]2CCCC[C@H]2N2CCCC2)cc1Cl | 19.6 µM (inactive) | 17.8 µM (inactive) | 14.9 µM (inactive) | 21.8 µM (inactive) | 15.8 µM (inactive) | 28.7 µM (inactive) | 17.3 µM (inactive) | 19.5 µM (inactive) | 16.2 µM (inactive) | 26.3 µM (inactive) | 17.2 µM (inactive) | 15.3 µM (inactive) | 57.8 µM (inactive) | 25.9 µM (inactive) | 39.6 µM (inactive) | 8.24 µM (inactive) | 21.4 µM (inactive) | 20 µM (inactive) | 9.1 µM (inactive) |
| CN(C)CCNC(=O)c1cccc2c(NCCN(C)C)c3ccccc3nc12 | 2.39 µM (inactive) | 4.55 µM (inactive) | 1.37 µM (inactive) | 3.82 µM (inactive) | 1.94 µM (inactive) | 0.982 µM (active) | 1.37 µM (inactive) | 1.48 µM (inactive) | 3.15 µM (inactive) | 3.19 µM (inactive) | 2.79 µM (inactive) | 7.1 µM (inactive) | 2.99 µM (inactive) | 3.24 µM (inactive) | 2.66 µM (inactive) | 1.91 µM (inactive) | 7.78 µM (inactive) | 3.19 µM (inactive) | 1.61 µM (inactive) |
| COCC1OC(OC2OCC3OC4(OCC(O)(C(C)OC)C5OCOC54)OC3C2OC)C(OC)C(O)C1OC1OC(C)C(OC)C(OC2OC(C)C3OC4(CC(O)C(OC5CC(OC6CC(C)([N+](=O)[O-])C(OC)C(C)O6)C(OC(=O)c6c(C)c(Cl)c(O)c(Cl)c6OC)C(C)O5)C(C)O4)OC3(C)C2O)C1O (stereo not given) | > 100 µM (inactive) | > 100 µM (inactive) | > 100 µM (inactive) | > 100 µM (inactive) | > 100 µM (inactive) | > 100 µM (inactive) | > 100 µM (inactive) | > 100 µM (inactive) | > 100 µM (inactive) | > 100 µM (inactive) | > 100 µM (inactive) | > 100 µM (inactive) | > 100 µM (inactive) | > 100 µM (inactive) | > 100 µM (inactive) | > 100 µM (inactive) | > 100 µM (inactive) | > 100 µM (inactive) | > 100 µM (inactive) |
| C=C(Cl)/C(=C/Cl)CCC(Br)C(C)(C)Cl.C=C(Cl)/C(=C\Cl)CCC(Br)C(C)(C)Cl (stereo not given) | > 10 µM (inactive) | > 10 µM (inactive) | > 10 µM (inactive) | > 10 µM (inactive) | > 10 µM (inactive) | 5.45 µM (inactive) | 9.77 µM (inactive) | > 10 µM (inactive) | > 10 µM (inactive) | > 10 µM (inactive) | > 10 µM (inactive) | > 10 µM (inactive) | > 10 µM (inactive) | > 10 µM (inactive) | > 10 µM (inactive) | > 10 µM (inactive) | > 10 µM (inactive) | > 10 µM (inactive) | > 10 µM (inactive) |
| COC1CCC(O)C(/C=C/[N+](=O)[O-])C1 (stereo not given) | 8.3 µM (inactive) | 6.24 µM (inactive) | 2.62 µM (inactive) | 3.64 µM (inactive) | 3.99 µM (inactive) | 1.59 µM (inactive) | 10.9 µM (inactive) | 1.93 µM (inactive) | 1.99 µM (inactive) | 1.95 µM (inactive) | 4.14 µM (inactive) | 2.68 µM (inactive) | 4.56 µM (inactive) | 11.5 µM (inactive) | 2.99 µM (inactive) | 1.7 µM (inactive) | 15 µM (inactive) | 5.41 µM (inactive) | 3.37 µM (inactive) |
| Cc1cc(C)c2c(=N)c3ccccc3n(CCCCCCn3c4ccccc4c(=N)c4c(C)cc(C)nc43)c2n1 | 1.66 µM (inactive) | 1.77 µM (inactive) | 0.859 µM (active) | 1.74 µM (inactive) | 1.73 µM (inactive) | 0.197 µM (active) | 1.39 µM (inactive) | 0.18 µM (active) | 1.78 µM (inactive) | 1.68 µM (inactive) | 0.346 µM (active) | 1.85 µM (inactive) | 1.77 µM (inactive) | 0.767 µM (active) | 1.66 µM (inactive) | 0.172 µM (active) | 1.42 µM (inactive) | 0.598 µM (active) | 0.462 µM (active) |
| CN(C(=O)C12C3C4C1C1C2C3C41C(=O)O)C(C)(C)C (stereo not given) | > 100 µM (inactive) | > 100 µM (inactive) | > 100 µM (inactive) | > 100 µM (inactive) | > 100 µM (inactive) | > 100 µM (inactive) | > 100 µM (inactive) | > 100 µM (inactive) | > 100 µM (inactive) | > 100 µM (inactive) | > 100 µM (inactive) | > 100 µM (inactive) | > 100 µM (inactive) | > 100 µM (inactive) | > 100 µM (inactive) | > 100 µM (inactive) | > 100 µM (inactive) | > 100 µM (inactive) | > 100 µM (inactive) |
| O=C1c2c(Br)sc(Br)c2[C@H]2OC(=S)N[C@@H]12 | 2.6 µM (inactive) | 11.8 µM (inactive) | 16.6 µM (inactive) | 12.8 µM (inactive) | 18.3 µM (inactive) | 1.67 µM (inactive) | 1.69 µM (inactive) | 2.81 µM (inactive) | 5.04 µM (inactive) | 3.5 µM (inactive) | 14.4 µM (inactive) | 1.95 µM (inactive) | 4.89 µM (inactive) | 15.2 µM (inactive) | 11.8 µM (inactive) | 10.6 µM (inactive) | 8.51 µM (inactive) | 13.5 µM (inactive) | 2 µM (inactive) |
| c1ccc2c[n+](CCCCCCCCCC[n+]3ccc4ccccc4c3)ccc2c1 | > 4.35 µM (inactive) | > 10 µM (inactive) | > 10 µM (inactive) | > 4.81 µM (inactive) | > 10 µM (inactive) | > 10 µM (inactive) | 4.17 µM (inactive) | > 10 µM (inactive) | > 10 µM (inactive) | > 10 µM (inactive) | > 5.68 µM (inactive) | > 10 µM (inactive) | 2.07 µM (inactive) | > 10 µM (inactive) | 9.91 µM (inactive) | > 10 µM (inactive) | > 10 µM (inactive) | > 10 µM (inactive) | > 5.37 µM (inactive) |
